Data as given in the OPERA property sets (Mansouri et al. 2018).
Converted amounts (≈) assume the structure as drawn. Where a SMILES comes first, the peptide text is derived from it. The star is where a group is joined. NHtBu = CC(C)(C)N*

In order of rising logP:
1. C[N+](C)(C)CC1CCCC1.[I-]  -2
2. Nc1ccc(C=Cc2ccc(N)cc2S(=O)(=O)O)c(S(=O)(=O)O)c1  -1.7
3. Nc1nc(=O)n([C@H]2CC[C@@H](CO)O2)cc1F  -1.09
4. Nc1ncnc2c1nc(Sc1ccc(Cl)cc1)n2C1OC2COP(=O)(O)OC2C1O (stereo not given)  -0.98
5. NC(=O)c1ccccc1NCC(O)CO (stereo not given)  -0.8
6. CC(=O)NC(C)C(=O)NC(CC(=O)O)C(=O)NC(C)(C)C (stereo not drawn) (Ac-Ala-Asp-NHtBu; configuration not given here)  -0.74
7. Oc1ncnc2[nH]ncc12  -0.55
8. C=CC(=O)NCCCN1CCOCC1  -0.53
9. CN(C)C(N)=S  -0.43
10. Nc1cc(Cl)c(S(N)(=O)=O)cc1S(N)(=O)=O  -0.41
11. Cn1cccc(O)c1=O  -0.4
12. CC=O  -0.34
13. N=C(N)NN=Cc1cccc([N+](=O)[O-])c1  0.01
14. O=c1[nH][nH]c(=O)c2ccccc12  0.11
15. Cc1cc(C)c(NC(=O)CN(CC(=O)O)CC(=O)O)c(C)c1Br  0.11
16. Cc1nc(N)c2ncn([C@@H]3O[C@H](CO)C[C@@H]3F)c2n1  0.12
17. O=C(OCn1ncc2c(=O)[nH]cnc21)c1cccnc1  0.27
18. Clc1cccc(O[Si]23OCCN(CCO2)CCO3)c1  0.46
19. CC(=O)OCN1C(=O)C(C)=C(C)C1=O  0.65
20. NC(=O)c1ccc(N)nc1  0.7
21. CC(O)(C(=O)O)c1ccccc1 (stereo not given)  0.8
22. CC(C)(C)NCC(O)c1cc(O)cc(O)c1 (stereo not given)  0.9
23. CCCOC(=O)c1cc(=O)[nH]c(=O)[nH]1  1.1
24. O=[N+]([O-])c1ccc2nc[nH]c2c1  1.5
25. Cc1ccccc1CCN  1.6
26. CCOC(=O)CCn1nnc2ccccc21  1.6
27. CCCC(O)CC (stereo not given)  1.65
28. CC(=O)N(C)S(=O)(=O)c1ccc(C)cc1  1.73
29. N#Cc1cc(-c2ccncc2)cnc1Cl  1.74
30. CCCCOC(=O)C(N)Cc1ccc(O)cc1 (stereo not given)  1.8
31. COc1c2occc2cc2ccc(=O)oc12  2
32. Cc1cccc(OCCN(C)C)c1  2.05
33. O=c1c(Cl)c(Cl)cnn1-c1ccccc1  2.09
34. CC(C)OC(C)(C)C  2.14
35. CN(C)c1cccc([N+](=O)[O-])c1  2.16
36. N#CC(C#N)=Cc1ccc(Br)o1  2.16
37. COc1ccc(C(=O)CCCC(=O)O)cc1Cl  2.17
38. CC(=O)OCCC(C)C  2.25
39. Fc1ccc(C2=CCNCC2)cc1  2.37
40. CCN(CC)P(=O)(N(CC)CC)N1CCCC1  2.39
41. O=C(OCc1ccccc1)c1cccnc1  2.4
42. COc1ccc(Oc2ccc(NC(=O)N(C)C)cc2)cc1  2.54
43. Cc1cccc2[nH]ccc12  2.54
44. CCN=c1nc(Cl)[nH]c(=NC(C)CC)[nH]1 (stereo not given)  2.61
45. CCCCNC(=S)NCCCC  2.75
46. CSc1nc(N=[N+]=[N-])nc(NC(C)C)n1  3
47. O=C(OC1C2C=CC1C=C2)c1ccccc1 (stereo not given)  3.03
48. CC(=O)Oc1cc(C(C)C)c(OCCN(C)C)cc1C  3.17
49. Oc1cccc(N=C=S)c1  3.23
50. O=S(=O)(C(Cl)(Cl)Cl)C(Cl)(Cl)Cl  3.3
51. O=[N+]([O-])c1ccc2c(c1)Cc1ccccc1-2  3.37
52. CCC(Oc1ccc(Cl)cc1C)C(=O)O (stereo not given)  3.47
53. CN(C)C(=O)Nc1ccc(Oc2ccc(Cl)cc2)cc1  3.7
54. C=CCOc1ccccc1OCC(CNC(C)C)OC(=O)C(C)C (stereo not given)  3.77
55. CCCCCCCCC1(CC)C(=O)NC(=O)NC1=O  3.78
56. CCCC(=O)Oc1c(Br)cc(C#N)cc1Br  3.94
57. C=CCOc1ccccc1OCC(CNC(C)C)OC(=O)CCCC (stereo not given)  4
58. O=C(CCCN1CCC(O)(c2ccc(Cl)cc2)CC1)c1ccc(F)cc1  4.3
59. CCn1c2ccccc2c2ccccc21  4.49
60. CC(C)N(C(=O)SCC(Cl)=CCl)C(C)C  4.49
61. Brc1ccccc1-c1ccccc1  4.59
62. Clc1cccc2c(Cl)cccc12  4.67
63. COc1c(Cl)cc(Cl)c(Cl)c1Cl  4.75
64. CC1=CCC2CC1C2(C)C (stereo not given)  4.83
65. Cc1ccc2c(ccc3ccccc32)c1  4.86
66. ClC1(Cl)CC1(c1ccccc1)c1ccccc1  4.88
67. Cc1ccc(C)c2c(C)cccc12  4.9
68. Cc1ccc2cc3ccccc3cc2c1  5
69. ClC=C1C2CC(C(Cl)C2(Cl)Cl)C1(C(Cl)Cl)C(Cl)Cl (stereo not given)  5.49
70. ClC1=CC2(Cl)C3CC(Cl)C(Cl)C3C1(Cl)C2(Cl)Cl (stereo not given)  5.56
71. ClC1=C(Cl)C2(Cl)C(Cl)(Cl)C3CC(Cl)C1C3C2(Cl)Cl (stereo not given)  6.09
72. C[Si](C)(C)O[Si](C)(C)O[Si](C)(C)C  6.6
73. Clc1ccc(Nc2cc3nc4ccccc4n(-c4ccc(Cl)cc4)c-3cc2=NCCCN2CCCC2)cc1  7.17
74. Cc1cc(Cc2ccc(Cl)c(Cl)c2)c(Cl)cc1Cl  7.26
75. Cc1cc(Cl)c(Cl)cc1Cc1ccc(Cl)cc1Cl  7.41

In order of rising solubility:
1. Clc1cccc2c(Cl)cccc12  1.92 µM (≈ 0.379 µg/mL)
2. c1ccc2c(c1)sc1ccccc12  7.98 µM (≈ 1.47 µg/mL)
3. Oc1c(Cl)ccc(Cl)c1Cl  2280 µM (≈ 450 µg/mL)
4. CC[n+]1c(-c2ccccc2)c2cc(N)ccc2c2ccc(N)cc21.[Br-]  50700 µM
5. OCC(S)CS (stereo not given)  700000 µM (≈ 87000 µg/mL)
